# Measured values: patent US20230203060A1 (GENFLEET THERAPEUTICS (SHANGHAI) INC., priority 2020, published 2023)
# Where two headings read alike, the source gives them in different places.
# Key:
# [1] = test system: phosphorylated ERK downstream of KRAS G12C in MIA PaCa2 cells; assay: Cell p-ERK detection experiment (HTRF) in MIA PaCa2; assay type: cell-based, human; details: read-out: p-ERK IC50
# Summary of the method: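 KRAS G12C-mutant MIA PaCa2 cells (2.5E4 per well, overnight) exposed 2 h to a 3.16-fold compound dilution series at 0.1% DMSO. Lysates probed 4 h with HTRF antibodies to ERK phospho-T202/Y204; inhibition versus DMSO control and blank, IC50 by four-parameter fit.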
# KRAS G12C = molecular target: T1, KRAS G12C (Homo sapiens, UniProt P01116, G12C); assay: KRAS G12C NEA-HTRF experiment (SOS1-catalyzed displacement of GDP by GTP); assay type: biochemical
# T1 construct: purchased Reactionbiology
# T1 sequence (P01116 1-188 isoform P01116-2 G12C): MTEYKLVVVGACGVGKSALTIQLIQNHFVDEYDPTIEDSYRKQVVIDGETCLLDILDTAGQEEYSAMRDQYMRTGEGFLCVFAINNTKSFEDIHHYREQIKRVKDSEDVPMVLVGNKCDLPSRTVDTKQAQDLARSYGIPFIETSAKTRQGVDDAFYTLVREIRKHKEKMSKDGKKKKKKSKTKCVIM
# Summary of the method: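 His-tagged KRAS G12C preloaded with DY647-GDP was preincubated 15 min at 20 °C with compound, then exchanged with SOS1 (0.2 μM working solution) and GTP (200 μM working solution) for 2 h at 20 °C in the dark. HTRF 665/615 nm ratio with anti-His-Tb was normalised to T0 and no-compound controls; IC50 by four-parameter fit.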
# [2] = MIA PaCa2 cells, 2 hours with compound, Advance ERK phospho-T202/Y204 HTRF kit
# [3] = Homo sapiens, MIA PaCa-2, 2 h, MIA PaCa2 cells, 2 hours with compound, Advance ERK phospho-T202/Y204 HTRF kit
SMILES,"IC50 [1, 2] [nM]",IC50 (KRAS G12C) [nM],"IC50 [1, 3] [nM]","IC50 ([1]; Homo sapiens, MIA PaCa-2, 2 h) [nM]"
"C=CC(=O)N1CCN2C(=O)c3c(NC(C)(C)C)nc(-c4c(O)cccc4F)c(Cl)c3OC[C@H]2C1 [Z69, (6aR)-8-acryloyl-1-(tert-butylamino)-4-chloro-3-(2-fluoro-6-hydroxyphenyl)-6,6a,7,8,9,10-hexahydro-12H-pyrazino[2,1-c]pyrido[3,4-f][1,4]oxazepin-12-one]",,79,79,
"C=CC(=O)N1CCN2C(=O)c3c(N4C[C@H](N(C)C)CC4(C)C)nc(-c4ccccc4)c(Cl)c3OC[C@H]2C1 (single isomer, unassigned) [Z655-2]",196,128,,
"C=CC(=O)N1CCN2C(=O)c3c(NC(C)C)nc(-c4c(O)cccc4F)c(Cl)c3OC[C@H]2C1 [Z75, (6aR)-8-acryloyl-4-chloro-1-(isopropylamino)-3-(2-fluoro-6-hydroxyphenyl)-6,6a,7,8,9,10-hexahydro-12H-pyrazino[2,1-c]pyrido[3,4-f][1,4]oxazepin-12-one]",,138,,
C=CC(=O)N1CCN2C(=O)c3c(N4CC(N(C)CC(F)F)CC4(C)C)nc(-c4ccccc4F)c(Cl)c3OC[C@H]2C1 (stereo partly drawn) [Z659],26,19.4,,
"C=CC(=O)N1CCN2C(=O)c3c(OC4CCN(C)CC4)nc(-c4c(O)cccc4F)c(Cl)c3OC[C@H]2C1 [Z61, (6aR)-8-acryloyl-4-chloro-3-(2-fluoro-6-hydroxyphenyl)-1-((1-methylpiperidin-4-yl)oxy)-6,6a,7,8,9,10-hexahydro-12H-pyrazino[2,1-c]pyrido[3,4-f][1,4]oxazepin-12-one]",,176,,
C=CC(=O)N1CCN2C(=O)c3c(N4CCN(CC)C[C@@H]4C)nc(-c4c(O)cccc4F)c(Cl)c3OC[C@H]2C1 [Z236],,113,,25
"C=CC(=O)N1CCN2C(=O)c3c(N(C)c4c(C)ccnc4C(C)C)nc(-c4c(O)cccc4F)c(Cl)c3OC[C@H]2C1 [Z6, (6aR)-8-acryloyl-4-chloro-3-(2-fluoro-6-hydroxyphenyl)-1-((2-isopropyl-4-methylpyridin-3-yl)(methyl)amino)-6,6a,7,8,9,10-hexahydro-12H-pyrazino[2,1-c]pyrido[3,4-f][1,4]oxazepin-12-one]",,,128,
"C=CC(=O)N1CCN2C(=O)c3c(N4CC(N5CCOCC5)CC4(C)C)nc(-c4ccccc4F)c(Cl)c3OC[C@H]2C1 (single isomer, unassigned) [Z468-2]",61,46.5,,
"C=CC(=O)N1CCN2C(=O)c3c(C4NCCN5C(=O)CCC45C)nc(-c4c(O)cccc4F)c(Cl)c3OC[C@H]2C1 (stereo partly drawn) [Z337, (6aR)-8-acryloyl-4-chloro-3-(2-fluoro-6-hydroxyphenyl)-1-(8a-methylhexahydropyrrolo[1,2-a]pyrazin-6 (2H)-one-1-yl)-6,6a,7,8,9,10-hexahydro-12H-pyrazino[2,1-c]pyrido[3,4-f][1,4]oxazepin-12-one]",154,58,,
"C=CC(=O)N1CCN2C(=O)c3c(N4C[C@H](NC)CC4(C)C)nc(-c4ccccc4F)c(Cl)c3OC[C@H]2C1 (single isomer, unassigned) [Z661-2]",,511,538,
"C=CC(=O)N1CCN2C(=O)c3c(Nc4c(C)ccnc4C(C)C)nc(-c4c(O)cccc4F)c(Cl)c3OC[C@H]2C1 [Z5, (6aR)-8-acryloyl-4-chloro-3-(2-fluoro-6-hydroxyphenyl)-1-((2-isopropyl-4-methylpyridin-3-yl)amino)-6,6a,7,8,9,10-hexahydro-12H-pyrazino[2,1-c]pyrido[3,4-f][1,4]oxazepin-12-one]",,,163,
"C=CC(=O)N1CCN2C(=O)c3c(N4CC(N(C)C5COC5)CC4(C)C)nc(-c4c(O)cccc4F)c(Cl)c3OC[C@H]2C1 (single isomer, unassigned) [Z331-2]",7,7,,
"C=CC(=O)N1CCN2C(=O)c3c(N4C[C@H](N(C)CCF)CC4(C)C)nc(-c4ccccc4F)c(Cl)c3OC[C@H]2C1 (single isomer, unassigned) [Z660-2]",91,50.5,,

# The next lines start with results.
"IC50 [1, 2] [nM]",IC50 (KRAS G12C) [nM],"IC50 [1, 3] [nM]",SMILES,"IC50 ([1]; Homo sapiens, MIA PaCa-2, 2 h) [nM]"
21,111,,"C=CC(=O)N1CCN2C(=O)c3c(N4CCN(C)C(C)C4C)nc(-c4c(O)cccc4F)c(Cl)c3OC[C@H]2C1 (stereo partly drawn) [Z308a, (6aR)-8-acryloyl-4-chloro-3-(2-fluoro-6-hydroxyphenyl)-1-(2,3,4-trimethylpiperazin-1-yl)-6,6a,7,8,9,10-hexahydro-12H-pyrazino[2,1-c]pyrido[3,4-f][1,4]oxazepin-12-one]",
19,14,,"C=CC(=O)N1CCN2C(=O)c3c(N4CC(=O)N(C)CC4C)nc(-c4c(O)cccc4F)c(Cl)c3OC[C@H]2C1 (single isomer, unassigned) [Z221-1]",
173,139,,"C=CC(=O)N1CCN2C(=O)c3c(N4CC(=O)N(C)CC4C)nc(-c4c(O)cccc4F)c(Cl)c3OC[C@H]2C1 (single isomer, unassigned) [Z221-2]",
,113,195,"C=CC(=O)N1CCN2C(=O)c3c(N4C[C@H](O)C[C@@H]4C)nc(-c4c(O)cccc4F)c(Cl)c3OC[C@H]2C1 [Z259, (6aR)-8-acryloyl-4-chloro-3-(2-fluoro-6-hydroxyphenyl)-1-((2S,4R)-4-hydroxy-2-methylpyrrolidin-1-yl)-6,6a,7,8,9,10-hexahydro-12H-pyrazino[2,1-c]pyrido[3,4-f][1,4]oxazepin-12-one]",
,167,,"C=CC(=O)N1CCN2C(=O)c3c(N4CCNC(C)C4C)nc(-c4c(O)cccc4F)c(Cl)c3OC[C@H]2C1 (stereo partly drawn) [Z308, (6aR)-8-acryloyl-4-chloro-1-(2,3-dimethylpiperazin-1-yl)-3-(2-fluoro-6-hydroxyphenyl)-6,6a,7,8,9, 10-hexahydro-12H-pyrazino[2,1-c]pyrido[3,4-f][1,4]oxazepin-12-one]",
,33,91,"C=CC(=O)N1CCN2C(=O)c3c(N4C[C@@H](O)C[C@@H]4C)nc(-c4c(O)cccc4F)c(Cl)c3OC[C@H]2C1 [Z260, (6aR)-8-acryloyl-4-chloro-3-(2-fluoro-6-hydroxyphenyl)-1-((2S,4S)-4-hydroxy-2-methylpyrrolidin-1-yl)-6,6a,7,8,9,10-hexahydro-12H-pyrazino[2,1-c]pyrido[3,4-f][1,4]oxazepin-12-one]",
,44,136,"C=CC(=O)N1CCN2C(=O)c3c(N4C[C@H](O)CC4(C)C)nc(-c4c(O)cccc4F)c(Cl)c3OC[C@H]2C1 (single isomer, unassigned) [Z82]",
,93,104,"C=CC(=O)N1CCN2C(=O)c3c(N4CCN(CCO)C[C@@H]4C)nc(-c4c(O)cccc4F)c(Cl)c3OC[C@H]2C1 [Z257, (6aR)-8-acryloyl-4-chloro-3-(2-fluoro-6-hydroxyphenyl)-1-((S)-4-(2-hydroxyethyl)-2-methylpiperazin-1-yl)-6,6a,7 ,8,9,10-hexahydro-12H-pyrazino[2,1-c]pyrido[3,4-f][1,4]oxazepin-12-one]",
,36,23,"C=CC(=O)N1CCN2C(=O)c3c(N4CC(=O)N(C)CC4C)nc(-c4c(O)cccc4F)c(Cl)c3OC[C@H]2C1 (stereo partly drawn) [Z221, (6aR)-8-acryloyl-4-chloro-1-(2,4-dimethyl-5-oxopiperazin-1-yl)-3-(2-fluoro-6-hydroxyphenyl)-6,6a,7,8,9,10-hexahydro-12H-pyrazino[2,1-c]pyrido[3,4-f][1,4]oxazepin-12-one]",
479,692,,"C=CC(=O)N1CCN2C(=O)c3c(N4CCN(C)C[C@@H]4C)nc(-c4c(O)cccc4Cl)c(Cl)c3OC[C@H]2C1 (single isomer, unassigned) [Z455-1]",
,,154,"C=CC(=O)N1CCN2C(=O)c3c(N4CCOC5(CC5)C4)nc(-c4c(O)cccc4F)c(Cl)c3OC[C@H]2C1 [Z63, (6aR)-8-acryloyl-4-chloro-1-(4-oxa-7-azaspiro[2.5]octan-7-yl)-3-(2-fluoro-6-hydroxyphenyl)-6,6a,7,8,9,10-hexahydro-12H-pyrazino[2,1-c]pyrido[3,4-f][1,4]oxazepin-12-one]",
,6,13,"C=CC(=O)N1CCN2C(=O)c3c(N4C[C@@H](O)CC4(C)C)nc(-c4c(O)cccc4F)c(Cl)c3OC[C@H]2C1 (single isomer, unassigned) [Z81]",
,150,59,"C=CC(=O)N1CCN2C(=O)c3c(N4CCN(C)C(C)(C)C4)nc(-c4c(O)cccc4F)c(Cl)c3OC[C@H]2C1 [Z261, (6aR)-8-acryloyl-4-chloro-3-(2-fluoro-6-hydroxyphenyl)-1-(3,3,4-trimethylpiperazin-1-yl)-6,6a,7,8,9,10-hexahydro-12H-pyrazino[2,1-c]pyrido[3,4-f][1,4]oxazepin-12-one]",
,,138,"C=CC(=O)N1CCN2C(=O)c3c(N4CCN(C)[C@H](C)C4)nc(-c4c(O)cccc4F)c(Cl)c3OC[C@H]2C1 [Z235, (6aR)-8-acryloyl-4-chloro-1-((R)-3,4-dimethylpiperazin-1-yl)-3-(2-fluoro-6-hydroxyphenyl)-6,6a,7,8,9,10-hexahydro-12H-pyrazino[2,1-c]pyrido[3,4-f][1,4]oxazepin-12-one]",
,173,,"C=CC(=O)N1CCN2C(=O)c3c(N4CCOC5CC54)nc(-c4c(O)cccc4F)c(Cl)c3OC[C@H]2C1 (stereo partly drawn) [Z76, (6aR)-8-acryloyl-4-chloro-1-(2-oxa-5-azabicyclo[4.1.0]heptan-5-yl)-3-(2-fluoro-6-hydroxyphenyl)-6,6a,7,8,9,10-hexahydro-12H-pyrazino[2,1-c]pyrido[3,4-f][1,4]oxazepin-12-one]",
